Assay results reported in patent US6051570A, “Benzimidazole derivatives as antiulcer agents, process for their preparation and pharmaceutical compositions containing them” (Dr. Reddy's Research Foundation, priority 1998, dated 2000).
Counter-ions that a name gives are not always drawn.

What was measured:
gastric acid secretion = experiment: Gastric acid antisecretory activity in pylorus ligated rat model (intraduodenal); format: in vivo, Male wistar rats; settings: for ED50: pylorus ligated rat, read-out: ED50 value (in vivo experiment, gastric acid secretion); for ED50 / inhibition in vivo at 10 mg/kg: intraduodenal, 2 h; for inhibition in vivo at 10 mg/kg: Rattus norvegicus
Experimental: B) Gastric acid antisecretory activity The inhibitory effect on gastric acid secretion is determined in pylorus ligated rat model according to Shay et al. ([…]., Gruenstein, H. & Siplet, H. Gastroenterology 1945, 5:43). Male wistar rats weighing about 150-200 g fasted for 24 h with ad libitum are used. Under ether anaesthesia the laparotomy is performed and pylorus portion of the stomach is isolated and ligated with surgical suture. The test drug/vehicle is administered intraduodenally and the abdominal incision is closed using Michael clips. After 2 h, the animals were sacrificed with excess ether anaesthesia and stomach is removed. The gastric contents are collected and centrifuged at 10,000 rpm for 10 min. The volume of the gastric juice is measured and acid concentration is estimated by titrating an aliquot of the gastric juice against 0.004N NaOH using phenolphthalein as the indicator. Total acid output is expressed as milliequivalents/L/kg/h and volume of gastric juice as mL/kg/h. The ED50 value for the test compound is calculated according to graphical method. Omeprazole is used as a standard compound.

H^+ /K^+ - ATPase = molecular target: T1, H^+ /K^+ - ATPase (Oryctolagus cuniculus, UniProt P27112); experiment: H+/K+-ATPase inhibition (rabbit gastric mucosa enzyme, Pi liberated by ATP hydrolysis); format: biochemical; settings: pH 6.5, 37° C., 15 min
T1 construct: Rabbit gastric mucosa containing H^+ /K^+ - ATPase activity is isolated; from tissue; host or cells: rabbit gastric fundic mucosa, membrane fraction (sucrose-step ultracentrifugation pellet)
T1 sequence (P27112 2-1035 limits assumed): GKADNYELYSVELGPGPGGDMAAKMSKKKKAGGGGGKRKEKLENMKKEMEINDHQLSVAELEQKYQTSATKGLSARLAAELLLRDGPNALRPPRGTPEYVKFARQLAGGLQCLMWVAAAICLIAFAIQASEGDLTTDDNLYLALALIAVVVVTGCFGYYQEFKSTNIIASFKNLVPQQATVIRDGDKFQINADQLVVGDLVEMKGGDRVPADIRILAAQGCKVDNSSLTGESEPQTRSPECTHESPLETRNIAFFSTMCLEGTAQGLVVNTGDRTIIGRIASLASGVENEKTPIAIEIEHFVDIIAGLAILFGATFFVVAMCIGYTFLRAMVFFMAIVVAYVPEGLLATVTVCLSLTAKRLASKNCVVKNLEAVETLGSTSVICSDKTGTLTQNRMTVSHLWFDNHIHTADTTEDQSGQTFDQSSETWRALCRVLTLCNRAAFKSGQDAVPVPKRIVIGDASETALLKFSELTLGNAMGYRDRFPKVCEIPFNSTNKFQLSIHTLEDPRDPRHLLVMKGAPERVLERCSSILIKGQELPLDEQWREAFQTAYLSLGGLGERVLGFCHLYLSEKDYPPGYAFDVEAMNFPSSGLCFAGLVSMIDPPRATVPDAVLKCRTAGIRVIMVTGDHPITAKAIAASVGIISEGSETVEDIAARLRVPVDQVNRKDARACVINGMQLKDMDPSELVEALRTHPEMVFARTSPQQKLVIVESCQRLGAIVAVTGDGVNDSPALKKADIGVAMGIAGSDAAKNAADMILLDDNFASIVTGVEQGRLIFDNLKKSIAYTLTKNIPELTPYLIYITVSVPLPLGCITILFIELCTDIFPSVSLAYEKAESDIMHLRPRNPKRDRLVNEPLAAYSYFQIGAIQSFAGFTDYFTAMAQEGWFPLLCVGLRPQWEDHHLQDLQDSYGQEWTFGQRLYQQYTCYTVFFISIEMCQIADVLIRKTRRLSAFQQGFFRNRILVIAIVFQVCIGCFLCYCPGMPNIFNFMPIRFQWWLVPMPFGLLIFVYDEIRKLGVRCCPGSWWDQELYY
T1 sequence (P18597 whole entry partner): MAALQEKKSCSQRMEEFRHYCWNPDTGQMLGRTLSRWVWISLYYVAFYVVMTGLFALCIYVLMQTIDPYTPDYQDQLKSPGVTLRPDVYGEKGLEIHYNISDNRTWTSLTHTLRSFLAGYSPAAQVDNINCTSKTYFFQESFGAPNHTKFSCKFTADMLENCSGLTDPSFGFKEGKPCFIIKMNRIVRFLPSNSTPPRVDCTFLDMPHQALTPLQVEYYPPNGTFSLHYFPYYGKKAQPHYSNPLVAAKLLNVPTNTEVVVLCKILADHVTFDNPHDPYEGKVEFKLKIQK
Description: A) H^+ /K^+ - ATPase inhibition
The most efficient method for reducing acid-related gastrointestinal disorder is through the inhibition of proton pump on the gastric parietal cell. The proton pump (H^+ /K^+ ATPase) is a membrane bound enzyme that exchanges protons for K^+ ions across the apical surface. Associated with this is a K^+ /Cl^- cotransporter which recycles the K^+ together with the Cl^- across the apical surface where HCl is formed by the Cl^- ions together with the secreted H^+. This enzyme has an ATP hydrolyzing activity which requires intravesicular K^+.
Principle [formula] Pi liberated is estimated, the amount of Pi liberated is proportional to the enzyme activity.
(i) Preparation of H^+ /K^+ - ATPase […]
Assay is carried out according to the protocol described by Beil, R (Beil, R. Br. J. Pharmacol, 1984, 82:651). […] After incubation for 15 min. at 37° C., the reaction is stopped by adding equal volume of phosphate reagent and the Pi produced by the hydrolysis of ATP is determined by the method of Lin et al. (Lin T -I. & Morales, M. F. Anal. Biochem. 1977, 77:10). The H^+ /K^+ - ATPase activity is calculated by subtracting the basal activity (in absence of KCl) from the rate of hydrolysis of ATP in the presence of K^+. The percent inhibition were determined for the test compounds.

Row | SMILES | inhibition in vivo at 10 mg/kg (gastric acid secretion) | also measured
1 | COc1ccnc(C[S+]([O-])c2nc3cc(N4CCOCC4)c(F)cc3[nH]2)c1C (stereo not shown) [Example 57, 2-[[(4-Methoxy-3-methyl)pyridin-2-yl]methylsulfinyl]-6-fluoro-5-(morpholin-1-yl)-1H-benzimidazole] | – | ED50 (gastric acid secretion): 3 ± 0.2 mg/kg; IC50 (H^+ /K^+ - ATPase): 2.6 µM
2 | COc1ccnc(C[S+]([O-])c2nc3cc(N4CCCCC4)c(F)cc3[nH]2)c1C (stereo not shown) [Example 67, 2-[[(4-Methoxy-3-methyl)pyridin-2-yl]methylsulfinyl]-6-fluoro-5-(piperidin-1-yl)-1H-benzimidazole] | 100% | –
3 | COc1ccnc(C[S+]([O-])c2nc3cc(N4CCCCC4)c(F)cc3[nH]2)c1C (stereo not shown) [Example 68, 2-[[(4-Methoxy-3-methyl)pyridin-2-yl]metlhylsulfinyl]-6-fluoro-5-(piperidin-1-yl)-1H-benzimidazole, sodium salt] | – | % Inhibition at 10 mg/kg (gastric acid secretion): 100%
4 | Cc1c(N2CCCCC2)ccnc1C[S+]([O-])c1nc2cc(N3CCCCC3)c(F)cc2[nH]1 (stereo not shown) [Example 69] | 97% | –
5 | COc1ccnc(C[S+]([O-])c2nc3cc(N4CCN(C(=O)OC(C)(C)C)CC4)c(F)cc3[nH]2)c1C (stereo not shown) [Example 73, 2-[[(4-Methoxy-3methyl)pyridin-2-yl]methylsulfinyl]-6-fluoro-5-(4-t-butyloxycarbonylpiperazin-1-yl)-1H-benzimidazole] | 93% | –
6 | COc1ccnc(C[S+]([O-])c2nc3cc(N4CCCCCC4)c(F)cc3[nH]2)c1C (stereo not shown) [Example 80, 2-[[(4-Methoxy-3-methyl)pyridin-2-yl]methylsulfinyl]-6-fluoro-5-(hexamethyleneimin-1-yl)-1H-benzimidazole] | 100% | –
7 | COc1ccnc(C[S+]([O-])c2nc3cc(N4CCCCCC4)c(F)cc3[nH]2)c1C (stereo not shown) [Example 81, 2-[[(4-Methoxy-3-methyl)pyridin-2-yl]methylsulfinyl]-6-fluoro-5-(hexamethyleneimin-1-yl)-1H-benzimidazole, sodium salt] | – | % Inhibition at 10 mg/kg (gastric acid secretion): 100%
8 | Cc1c(N2CCOCC2)ccnc1C[S+]([O-])c1nc2cc(N3CCCCCC3)c(F)cc2[nH]1 (stereo not shown) [Example 82, 2-[[(4-(Morpholin-1-yl)-3-methyl)pyridin-2-yl]methylsulfinyl]-6-fluoro-5-(hexamethyleneimin-1-yl)-1H-benzimidazole] | 100% | –
9 | COc1ccnc(C[S+]([O-])c2nc3cc(N4CCCC4)c(F)cc3[nH]2)c1C (stereo not shown) [Example 84, 2-[[(4-Methoxy-3-methyl)pyridin-2-yl]methylsulfinyl]-6-fluoro-5-(pyrrolidin-1-yl)-1H-benzimidazole] | 93% | –
10 | COc1ccnc(C[S+]([O-])c2nc3cc(N4CCOCC4)ccc3[nH]2)c1C (stereo not shown) [Example 87, 2-[[(4-Methoxy-3-methyl)pyridin-2-yl]methylsulfinyl]-5-(morpholin-1-yl)-1H-benzimidazole] | 90% | –
11 | COc1ccnc(C[S+]([O-])c2nc3cc(N4CCN(C(=O)OC(C)(C)C)CC4)ccc3[nH]2)c1C (stereo not shown) [Example 90, 2-[[(4-Methoxy-3-methyl)pyridin-2-yl]methylsulfinyl]-5-(4-t-butyloxycarbonylpiperazin-1-yl)-1H-benzimidazole] | 100% | –
12 | COc1ccnc(C[S+]([O-])c2nc3cc(N4CCCCCC4)ccc3[nH]2)c1C (stereo not shown) [Example 91, 2-[[-(4-Methoxy-3-methyl)pyridin-2-yl]methylsulfinyl]-5-(hexamethyleneimin-1-yl)-1H-benzimidazole] | 97% | –
13 | COc1ccc2[nH]c([S+]([O-])Cc3ncc(C)c(OC)c3C)nc2c1 (stereo not shown) [Omeprazole, 2-[[(4-methoxy-3,5-dimethyl)pyridin-2-yl]methylsulfinyl]-5-methoxy-1H-benzimidazole, reference compound] | 75% | ED50 (gastric acid secretion): 4.96 ± 0.5 mg/kg; IC50 (H^+ /K^+ - ATPase): 4.35 ± 0.56 µM
